Each block holds one molecule with its values, some of them ahead of it.
Biological target: T1, HA-E837A CaSR mutant (Rattus norvegicus, UniProt P48442, E837A)
T1 construct: mGluR5 signal peptide (N); expressed in transfected cells; host or cells: HEK293T
T1 sequence (P48442 20-1079 E837A): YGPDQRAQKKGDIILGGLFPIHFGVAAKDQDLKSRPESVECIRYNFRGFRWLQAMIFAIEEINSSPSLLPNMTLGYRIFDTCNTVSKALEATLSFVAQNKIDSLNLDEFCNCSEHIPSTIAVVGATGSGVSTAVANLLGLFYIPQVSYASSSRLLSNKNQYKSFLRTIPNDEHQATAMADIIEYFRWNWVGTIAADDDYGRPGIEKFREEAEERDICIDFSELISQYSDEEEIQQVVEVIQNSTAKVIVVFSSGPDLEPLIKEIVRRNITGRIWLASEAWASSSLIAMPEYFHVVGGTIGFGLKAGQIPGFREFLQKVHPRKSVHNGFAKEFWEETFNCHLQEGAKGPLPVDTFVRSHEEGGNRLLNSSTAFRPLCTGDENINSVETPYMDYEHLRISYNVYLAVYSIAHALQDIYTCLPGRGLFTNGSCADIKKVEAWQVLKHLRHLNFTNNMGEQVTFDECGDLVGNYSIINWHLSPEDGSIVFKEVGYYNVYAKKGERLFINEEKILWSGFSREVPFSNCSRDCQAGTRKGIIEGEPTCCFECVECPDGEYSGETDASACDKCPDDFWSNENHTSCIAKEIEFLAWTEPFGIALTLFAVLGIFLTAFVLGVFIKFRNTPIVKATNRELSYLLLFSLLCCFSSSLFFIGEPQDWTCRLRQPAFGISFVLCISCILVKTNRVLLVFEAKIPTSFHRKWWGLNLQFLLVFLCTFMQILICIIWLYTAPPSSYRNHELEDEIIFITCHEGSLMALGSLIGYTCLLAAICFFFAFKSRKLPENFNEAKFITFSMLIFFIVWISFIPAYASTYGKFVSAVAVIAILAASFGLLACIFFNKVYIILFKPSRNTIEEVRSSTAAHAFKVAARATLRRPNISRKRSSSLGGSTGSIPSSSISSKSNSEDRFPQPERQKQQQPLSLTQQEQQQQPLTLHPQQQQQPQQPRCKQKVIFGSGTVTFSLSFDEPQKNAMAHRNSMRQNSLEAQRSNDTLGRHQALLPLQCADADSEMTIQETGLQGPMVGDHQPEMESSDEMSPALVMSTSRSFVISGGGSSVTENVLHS
Assay: IP-One assay, HEK293T transiently transfected
Type: cell-based
Conditions: for effect on the Ca^2+-induced response: E837A mutant; for EC50 / pEC50 ± S.E.M. / Max ± S.E.M.: HA-E837A
Method: Human embryonic kidney (HEK) 293T cells were cultured in DMEM supplemented with 10% dFBS and 1% P/S at 37 °C and 5% CO2. 48 h prior to assay, transient transfection was performed using Lipofectamine 2000 as the transfection reagent. White opaque 96-well culture plates (PerkinElmer, Waltham, MA, USA) were used for the ELISA and the TR-FRET dimerization assay, while clear tissue culture treated 96-well plates (Corning, Corning, NY, USA) were used for the IP-One assay. Both plate types were coated with poly-D-lysine before addition of cells and transfection mix. 0.25 μl/well of Lipofectamine 2000 were diluted in 25 μl/well of Opti-MEM and incubated at room temperature (RT) for 5 min. 0.03 μg/well of DNA was diluted in 25 μl/well of Opti-MEM, and subsequently mixed with the Lipofectamine 2000 dilution and incubated 20 min at RT before addition to the plates. Cell suspensions of 170.000 HEK293T cells/mL were prepared in complete growth medium and 100 μl/well (17.000 cells/well) was added to the plates, which were incubated for 48 h at 37 °C and 5% CO2 before performing assays.
Functional activity was measured using the IP-One assay, which is an IP1 accumulation assay. For agonist testing, ligands were prepared in final concentrations in ligand buffer (HBSS, 20 mM HEPES, pH 7.4 supplemented with 20 mM LiCl). Cells were washed once with 100 μl/well of assay buffer (HBSS, 20 mM HEPES, pH 7.4) and 50 μl/well of agonist solution was added after which plates were incubated at 37 °C for 30 min. Subsequently, ligand solutions were removed and cells were washed with 100 μl/well of assay buffer. Cell lysis was performed by addition of 30 μl/well of IP-One Conjugate & Lysis Buffer (Cisbio Bioassays, Codolet, France) and plates were incubated at RT for 30 min. Afterwards, 30 μl/well of assay buffer was added to dilute the cell lysate. 10 μl/well of cell lysate was transferred from the 96-well plate to a 384-well Optiplate and 10 μl/well of detection solution (Assay buffer + 2.5% of anti-IP1 antibody cryptate Terbium conjugate + 2.5% IP1-d2 conjugate (Cisbio Bioassays, Codolet, France)) was also added. The 384-well plate was incubated for 1 h at RT in dark before being measured on an EnVision plate reader (PerkinElmer, Waltham, MA, USA). Upon excitation at 340 nm, emission at 615 nm and 665 nm was measured, and the FRET ratio (665 nm/615 nm) was converted to IP1 concentrations by interpolating values from an IP1 standard curve generated from a provided IP1 calibrator (Cisbio Bioassays, Codolet, France). When testing allosteric modulators, cells were pre-incubated for 30 min at 37 °C with 50 μl/well of ligand buffer supplemented with allosteric modulator and a final concentration of 1% DMSO. Afterwards, the buffer solution was removed and 50 μl/well of agonist solution in ligand buffer supplemented with allosteric modulator and a final concentration of 1% DMSO was added. Plates were incubated for 30 min at 37 °C followed by one wash in 100 μl/well of assay buffer. Cell lysis and detection was performed as described above.

Structure (SMILES): CC(C)(Cc1ccc2ccccc2c1)NC[C@@H](O)COc1cccc(Cl)c1C#N.Cl [NPS 2143, NPS 2143 hydrochloride]
effect on the Ca^2+-induced response (5 μM NPS 2143): neither NPS R-568 nor NPS 2143 had any significant effect

Structure (SMILES): COc1cccc([C@@H](C)NCCCc2ccccc2Cl)c1.Cl [NPS R-568, NPS R-568 hydrochloride]
effect on the Ca^2+-induced response (1 μM NPS R-568): neither NPS R-568 nor NPS 2143 had any significant effect

EC50 (Ca^2+ alone): 3.4 mM | pEC50 ± S.E.M. (Ca^2+ alone): 2.47 ± 0.01 | Max ± S.E.M. (Ca^2+ alone, normalized to maximum response of WT CaSR): 87 ± 16% | EC50 (Ca^2+ with 1 μM NPS R-568): 3.88 mM | pEC50 ± S.E.M. (Ca^2+ with 1 μM NPS R-568): 2.41 ± 0.04 | Max ± S.E.M. (Ca^2+ with 1 μM NPS R-568, normalized to maximum response with Ca^2+ alone for the construct): 100 ± 5% | EC50 (Ca^2+ with 5 μM NPS 2143): 3.46 mM | pEC50 ± S.E.M. (Ca^2+ with 5 μM NPS 2143): 2.46 ± 0.02 | Max ± S.E.M. (Ca^2+ with 5 μM NPS 2143, normalized to maximum response with Ca^2+ alone for the construct): 91 ± 5.7%
Structure (SMILES): [Ca+2] [Ca^2+]

Source: article PMC5394417, “Investigating the molecular mechanism of positive and negative allosteric modulators in the calcium-sensing receptor dimer” (Scientific Reports, 2017)
